From patent US20240116900A1, “NEW CRYSTALLINE FORMS OF A KRAS G12C INHIBITOR COMPOUND” (NOVARTIS AG, priority 2020, published 2024)

Key:
KRAS G12C [1] = biological target: T1, KRAS G12C (Homo sapiens, UniProt P01116, G12C); test: Covalent inhibition / binding of KRAS G12C; details: binds KRAS G12C and traps it into inactive GDP-bound state
[2] = tested on: KRAS G12C mutant xenograft and patient-derived xenograft tumor models; test: Xenograft and patient-derived xenograft tumor models; format: in vivo; details: mice
[3] = tested on: KR ASG12C mutant cell lines; test: Cellular assays: KRAS-driven oncogenic signaling and proliferation; format: cell-based; details: specifically in KRAS G12C mutant cell lines
KRAS G12C [4] = biological target: T1, KRAS G12C; test: Cellular assay: downstream effector protein recruitment; format: cell-based; details: cellular assays

## C=CC(=O)N1CC2(CC(n3nc(-c4ccc5c(cnn5C)c4)c(-c4c(Cl)c(C)cc5[nH]ncc45)c3C)C2)C1 (single isomer, unassigned) [Compound A, 1-{6-[(4M)-4-(5-chloro-6-methyl-1H-indazol-4-yl)-5-methyl-3-(1-methyl-1H-indazol-5-yl)-1H-pyrazol-1-yl]-2-azaspiro[3.3]heptan-2-yl}prop-2-en-1-one]
KRAS G12C [1]
  inhibition of KRAS G12C: potent and selective covalent inhibitor
[2]
  antitumor activity: dose-dependent antitumor activity
  expression of the MAPK pathway target gene dual-specific phosphatase 6 (DUPS6): reduction of expression
[3]
  KRAS-driven oncogenic signaling and proliferation: inhibited
KRAS G12C [4]
  downstream effector protein recruitment to KRAS G12C: selectively inhibited
